22 molecules from patent publication US10011614B2, “Bis-β-carboline compound and preparation method, pharmaceutical composition and use thereof” (XINJIANG HUASHIDAN PHARMACEUTICAL RESEARCH CO., LTD., priority 2012, dated 2018) can be followed below.

Molecules are shown by their SMILES.

Data set [1] has as its system BGC (human gastric cancer cells). Put plainly: Antitumor screening in vitro, MTT assay, BGC. It counts as cell-based. Particulars: 48 hours. How it is done: (§1) Cell lines: BGC (human gastric cancer cells), A375 (human malignant melanoma cells), 769-P (human renal carcinoma cells), KB (human oral epidermoid carcinoma cells), SK-OV-3 (human ovarian cancer cells), etc, were selected, and the test method was the MTT assay. Cisplatin was as a positive control.
(§2) Specific methods are as follows: cells growing well in the logarithmic phase were seeded in 96-well plates at a concentration of 1×10^4 cells/ml, and then were placed in 37° C., containing 5% CO2 incubator for 24 hours. After discarding the old solution, changed fresh medium, and added sterilization treatment compound, and then cultured for 48 hours. After discarding the culture medium, 20 ul RPMI1640 medium containing 5 mg/ml MTT were added to each well in 96-well plates and cells were cultured for 4 hours. After the supernatant was carefully removed, 100 μl DMSO was added to each well, and the plates were Oscillated about 10 min to dissolve the precipitate, followed by detecting OD value in wavelength 490 nm by the microplate reader. Cell survival rate for each sample concentrations was determined by the following formula: The mean survival rate %=the average OD value of sample group/the average OD value of control group×100%
(§3) Morphological studies by mapping with the logarithm of the drug concentration and the mean survival rate % of each sample to obtain IC50 values for each sample.
(In general: Tetrazolium assays rely on reduction of a dye to a coloured formazan, in cell work by metabolically active cells.)

The test system of data set [2] is A375 (human malignant melanoma cells). Put plainly: Antitumor screening in vitro, MTT assay, A375. Type of data set: cell-based. As for the experimental part:
as §1, §2, §3

Data set [3] deals with 769-P (human renal carcinoma cells). Briefly: Antitumor screening in vitro, MTT assay, 769-P. It counts as cell-based. Particulars: 48 hours, 769-P cells. How it is done:
as §1, §2, §3

The subject of data set [4] is KB (human oral epidermoid carcinoma cells). Put plainly: Antitumor screening in vitro, MTT assay, KB. It counts as cell-based. Particulars: 48 hours. How it is done: as §1, §2, §3
For data set [5], the system named is SK-OV-3 (human ovarian cancer cells). Put plainly: Antitumor screening in vitro, MTT assay, SK-OV-3. Type of data set: cell-based. The note with it: 48 hours, SK-OV-3 cells. As for the experimental part: as §1, §2, §3

With `c1cncc(-c2nccc3c4ccccc4n(CCCCn4c5ccccc5c5ccnc(-c6cccnc6)c54)c23)c1` [Compound 31, 1,4-bis[1-(pyridine-3-yl)-β-carboline-9-yl) butane], the melting point was 224 to 225 °C. The same molecule had an IC50 in data set [1] (Homo sapiens) of 270 µM. Moreover, in data set [2] (Homo sapiens, A-375, 48 hours), the IC50 turned out to be 85.3 µM. For the same molecule, the IC50 in data set [3] (Homo sapiens) is above 300 µM. For the same molecule, the IC50 in data set [4] (Homo sapiens) is above 300 µM. Also, 36.8 µM corresponded to half-maximal inhibition in data set [5] (Homo sapiens) (IC50).

`Cc1nccc2c3ccccc3n(CCCCCCCn3c4ccccc4c4ccnc(C)c43)c12` [Compound 10, 1,7-bis(1-methyl-β-carboline-9-yl) heptane]: the melting point is 189 to 190 °C. This molecule displayed an IC50 in data set [1] (Homo sapiens) of 134 µM. This molecule also returned an IC50 in data set [2] (Homo sapiens, A-375, 48 hours) of 38 µM. In data set [3] (Homo sapiens), the IC50 was 149 µM. The same molecule showed an IC50 in data set [4] (Homo sapiens) of 87.9 µM. In data set [5] (Homo sapiens), this molecule came in with a half-inhibitory concentration (IC50) of 16.9 µM.

For the molecule `CCCCOc1ccc2c3ccnc(C)c3n(CCCCCCn3c4cc(OCCCC)ccc4c4ccnc(C)c43)c2c1` [Compound 24, 1,6-bis(7-n-butoxy-1-methyl-β-carboline-9-yl) hexane], the IC50 in data set [1] (Homo sapiens) is above 300 µM; in data set [2] (Homo sapiens, A-375, 48 hours), above 300 µM; in data set [3] (Homo sapiens), 56 µM; in data set [4] (Homo sapiens), above 300 µM; in data set [5] (Homo sapiens), above 300 µM.

Take `COc1ccc2c3ccnc(C)c3n(CCCCCCCC(C)n3c4cc(OC)ccc4c4ccnc(C)c43)c2c1` (stereo not drawn) [Compound 18, 1,8-bis(7-methoxy-1-methyl-β-carboline-9-yl) nonane]: the IC50 in data set [1] (Homo sapiens) was 104 µM; in data set [2] (Homo sapiens, A-375, 48 hours), 113 µM; in data set [3] (Homo sapiens) it was 114 µM; in data set [4] (Homo sapiens), 38.6 µM; in data set [5] (Homo sapiens), 10.2 µM.

As for `O=[N+]([O-])c1ccc(Cl)c(-c2nccc3c4ccccc4n(CCCCCCCCCn4c5ccccc5c5ccnc(-c6cc([N+](=O)[O-])ccc6Cl)c54)c23)c1` [Compound 38, 1,9-bis[1-(2-chloro-5-nitrophenyl)-β-carboline-9-yl) nonane], the IC50 is above 300 µM in data set [1] (Homo sapiens); above 300 µM in data set [2] (Homo sapiens, A-375, 48 hours); 1.8 µM in data set [3] (Homo sapiens); above 300 µM in data set [4] (Homo sapiens); above 300 µM in data set [5] (Homo sapiens).

In the case of `c1ccc2c(c1)c1ccncc1n2CCCCCCCn1c2ccccc2c2ccncc21` [Compound 4, 1,7-bis(11-carboline-9-yl) heptane], the IC50 in data set [1] was above 300 µM; in data set [2] (48 hours), 286 µM; in data set [3] it was 53 µM; in data set [4], above 300 µM; in data set [5] it was 212 µM.

The molecule `CC(C)c1nccc2c3ccccc3n(CCCCCCn3c4ccccc4c4ccnc(C(C)C)c43)c12` [Compound 39, 1,6-bis(1-isopropyl-β-carboline-9-yl) hexane] displayed a melting point of 241 to 242 °C. Moreover, the IC50 in data set [1] (Homo sapiens) is above 300 µM. Besides, the 50% inhibitory concentration (IC50) in data set [2] (Homo sapiens, A-375, 48 hours) was determined as 53.5 µM. Further, in data set [3] (Homo sapiens), the IC50 was 18.5 µM. The molecule further showed a 50% inhibitory concentration (IC50) in data set [4] (Homo sapiens) of 253 µM. The molecule further gave an IC50 in data set [5] (Homo sapiens) of 31.8 µM.

Take `Clc1ccccc1-c1nccc2c3ccccc3n(CCCCCCn3c4ccccc4c4ccnc(-c5ccccc5Cl)c43)c12` [Compound 35]: the IC50 in data set [1] was above 300 µM; in data set [2] (48 hours), 23.2 µM; in data set [3] it was above 300 µM; in data set [4], above 300 µM; in data set [5], above 300 µM.

For `Cc1nccc2c3ccccc3n(CCCCCCCCCn3c4ccccc4c4ccnc(C)c43)c12` [Compound 12, 1,9-bis(1-methyl-β-carboline-9-yl) nonane], the melting point was in the range of 155 to 156 °C. Further, the IC50 in data set [1] (Homo sapiens) was above 300 µM. In data set [2] (Homo sapiens, A-375, 48 hours), this molecule displayed an IC50 of 67.2 µM. Besides, inhibition in data set [3] (Homo sapiens) was half-maximal at 291 µM (IC50). In data set [4] (Homo sapiens), this molecule had an IC50 above 300 µM. In data set [5] (Homo sapiens), this molecule returned an IC50 of 61.9 µM.

Consider `Cc1nccc2c3ccc(OC(C)C)cc3n(CCCCCCn3c4cc(OC(C)C)ccc4c4ccnc(C)c43)c12` [Compound 25, 1,6-bis(7-isopropoxy-1-methyl-β-carboline-9-yl) hexane], for which the IC50 in data set [1] (Homo sapiens) amounted to 194 µM; in data set [2] (Homo sapiens, A-375, 48 hours) it was 18.5 µM; in data set [3] (Homo sapiens), 95.4 µM; in data set [4] (Homo sapiens) it was 19.8 µM; in data set [5] (Homo sapiens) it was 17.1 µM.

Turning to `c1ccc2c(c1)c1ccncc1n2CCCCCn1c2ccccc2c2ccncc21` [Compound 2, 1,5-bis(β-carboline-9-yl)pentane], the IC50 is 23.5 µM in data set [1] (Homo sapiens); 10.2 µM in data set [2] (Homo sapiens, A-375, 48 hours); 15.3 µM in data set [3] (Homo sapiens); above 300 µM in data set [4] (Homo sapiens); above 300 µM in data set [5] (Homo sapiens).

With `c1cncc(-c2nccc3c4ccccc4n(CCCCCCn4c5ccccc5c5ccnc(-c6cccnc6)c54)c23)c1` [Compound 32, 1,6-bis[1-(pyridine-3-yl)-β-carboline-9-yl) hexane], the half-inhibitory concentration (IC50) in data set [1] (Homo sapiens) is 14.1 µM; in data set [2] (Homo sapiens, A-375, 48 hours), 5.3 µM; in data set [3] (Homo sapiens), above 300 µM; in data set [4] (Homo sapiens), 13.3 µM; in data set [5] (Homo sapiens), 14.9 µM.

For the molecule `O=[N+]([O-])c1ccc(Cl)c(-c2nccc3c4ccccc4n(CCCCCCn4c5ccccc5c5ccnc(-c6cc([N+](=O)[O-])ccc6Cl)c54)c23)c1` [Compound 37, 1,6-bis[1-(2-chloro-5-nitro-phenyl)-⊕-carboline-9-yl) hexane], the IC50 in data set [1] was above 300 µM; in data set [2] (48 hours), 7 µM; in data set [3], 3.8 µM; in data set [4], above 300 µM; in data set [5] it was above 300 µM.

For `c1ccc2c(c1)c1ccncc1n2CCCCCCn1c2ccccc2c2ccncc21` [Compound 3, 1,6-bis(β-carboline-9-yl) hexane], the IC50 in data set [1] (Homo sapiens) came out at 13.8 µM; in data set [2] (Homo sapiens, A-375, 48 hours) it was 10.8 µM; in data set [3] (Homo sapiens), 12.8 µM; in data set [4] (Homo sapiens), 13.9 µM; in data set [5] (Homo sapiens), 38.9 µM.

Regarding `Clc1ccccc1-c1nccc2c3ccccc3n(CCCCCCCn3c4ccccc4c4ccnc(-c5ccccc5Cl)c43)c12` [Compound 36, 1,7-bis[1-(2-chlorophenyl)-β-carboline-9-yl) heptane], the half-maximal inhibitory concentration (IC50) in data set [1] (Homo sapiens) was above 300 µM; in data set [2] (Homo sapiens, A-375, 48 hours), 10.4 µM; in data set [3] (Homo sapiens), 82.1 µM; in data set [4] (Homo sapiens), above 300 µM; in data set [5] (Homo sapiens), above 300 µM.

Turning to `CCOC(=O)c1cc2c3ccccc3n(CCCCCCCCCn3c4ccccc4c4cc(C(=O)OCC)nc(-c5cc(OC)c(OC)c(OC)c5)c43)c2c(-c2cc(OC)c(OC)c(OC)c2)n1` [Compound 28, 1,9-bis[1-(3,4.5-trimethoxy)phenyl-β-carboline-3-ethyoxylcarbonyl-9-yl]nonane], the IC50 is above 300 µM in data set [1]; 218 µM in data set [2] (48 hours); 44.6 µM in data set [3]; above 300 µM in data set [4]; above 300 µM in data set [5].

Take `COc1cc(-c2nccc3c4ccccc4n(CCCCCCCn4c5ccccc5c5ccnc(-c6cc(OC)c(OC)c(OC)c6)c54)c23)cc(OC)c1OC` [Compound 20, 1,7-bis[1-(3,4,5-trimethoxy)phenyl-β-carboline-9-yl) heptane]: the IC50 in data set [1] was above 300 µM; in data set [2] (48 hours), 4 µM; in data set [3] it was 3.3 µM; in data set [4] it was 7.6 µM; in data set [5] it was above 300 µM.

With `Brc1ccc2c(c1)c1ccncc1n2CCCCn1c2ccc(Br)cc2c2ccncc21` [Compound 41, 1,4-bis[6-bromo-βcarboline-9-yl) butane], the IC50 in data set [1] (Homo sapiens) is above 300 µM; in data set [2] (Homo sapiens, A-375, 48 hours), above 300 µM; in data set [3] (Homo sapiens), 3.1 µM; in data set [4] (Homo sapiens), above 300 µM; in data set [5] (Homo sapiens), 8.9 µM.

Consider `CCOC(=O)c1cc2c3ccccc3n(CCCCCn3c4ccccc4c4cc(C(=O)OCC)nc(-c5cccnc5)c43)c2c(-c2cccnc2)n1` [Compound 29, 1,5-bis[3-ethyoxylcarbonyl-1-(pyridine-3-yl)-β-carboline-9-yl]pentane], for which the IC50 in data set [1] is 24.1 µM; in data set [2] (48 hours) it was 13 µM; in data set [3], 132 µM; in data set [4] it was 15.7 µM; in data set [5] it was above 300 µM.

Consider `CC(C)c1nccc2c3ccccc3n(CCCCCCCCCCn3c4ccccc4c4ccnc(C(C)C)c43)c12` [Compound 40, 1,10-bis[1-isopropyl-β-carboline-9-yl) decane], for which the IC50 was above 300 µM in data set [1] (Homo sapiens); 19.6 µM in data set [2] (Homo sapiens, A-375, 48 hours); 4.6 µM in data set [3] (Homo sapiens); above 300 µM in data set [4] (Homo sapiens); above 300 µM in data set [5] (Homo sapiens).

Turning to `N.N.[Cl][Pt][Cl]` [Cisplatin, reference compound], the IC50 came out at 17.3 µM in data set [1]; 39.2 µM in data set [2] (48 hours); 11.6 µM in data set [3]; 13.1 µM in data set [4]; 4.2 µM in data set [5].

As for `CCOC(=O)c1cc2c3ccccc3n(CCCCCCn3c4ccccc4c4cc(C(=O)OCC)nc(-c5cccnc5)c43)c2c(-c2cccnc2)n1` [Compound 30, 1,6-bis[3-ethyoxylcarbonyl-1-(pyridine-3-yl)-β-carboline-9-yl]hexane], the IC50 in data set [1] was above 300 µM; in data set [2] (48 hours), above 300 µM; in data set [3] it was above 300 µM; in data set [4] it was above 300 µM; in data set [5] it was 68.3 µM.

The IC50 is the concentration that gives 50% inhibition. As a reminder, the melting point is the temperature of the solid-liquid transition.
